# Data from patent publication US5656629A, “6-substituted pyrazolo (3,4-d)pyrimidin-4-ones and compositions and methods of use thereof” (Sanofi Winthrop, Inc., priority 1995, dated 1997).
# Experiments:
# [1] = target: T1, cGMP-PDE V (Homo sapiens, UniProt O76074); assay: cGMP-PDE V inhibition (isozyme isolated from cardiovascular tissue); assay type: biochemical, various animal species and man; settings: for inhibition at 0.1 µM / inhibition at 1 µM / inhibition at 10 µM / inhibition at 0.01 µM: read-out: Percent Inhibition cGMP-PDE V
# T1 construct: isolated from cardiovascular tissues (heart and aorta); from tissue; host or cells: cardiovascular tissues (heart and aorta)
# Source text: The cGMP-PDE and other PDE isozymes were isolated from cardiovascular tissues (heart and aorta) of various animal species and man by anion-exchange and affinity chromatography as described by Silver et al., Sec. Messeng. Phos. […] Cyclic Nucleotide Res. 10:69-92.
# [2] = test system: Spontaneously hypertensive rats (SHR); assay: antihypertensive activity in conscious spontaneously hypertensive rats (mean arterial pressure); assay type: in vivo; settings: Rattus norvegicus, SHR iv; for ED25: 5 min, 5 min after dose, cumulative dosing, read-out: ED25, change in mean arterial pressure
# Protocol: After a 2 day recovery from surgery, three baseline blood pressure measurements were made at 5 min intervals in conscious SHR. Compounds to be tested or vehicle were then administered intravenously in a dose-dependent manner (0.3-10 mg base/kg) while arterial pressure was recorded continuously on a polygraph. The mean arterial pressure response was measured 5 minutes after the administration of each dose of the test compound and the next dose given in a cumulative dose fashion. The response to each dose of the test compound was calculated as the difference from the mean of the three baseline measurements.
Compound,IC50 [1],inhibition at 0.1 µM [1],inhibition at 1 µM ([1]; 1 μM),also measured
"1-cyclopentyl-3-ethyl-6-[3,5-dimethylamino-4-hydroxyphenylmethyl]pyrazolo[3,4-d]pyrimidin-4-one [Example 14]",,,,Percent Inhibition cGMP-PDE V ([1]; 1 μM): 28%; Percent Inhibition cGMP-PDE V ([1]; 10 μM): 77%
"CCc1[nH]n(C2CCCC2)c2nc(Cc3ccc(OC)c(OC)c3)nc(=O)c1-2 [3(b), 1-cyclopentyl-3-ethyl-6-(3,4-dimethoxyphenylmethyl)-pyrazolo[3,4-d)pyrimidin-4-one]",22 nM,,,
"CCc1[nH]n(C2CCCC2)c2nc(Cc3ccncc3)nc(=O)c1-2 [4(b), 1-cyclopentyl-3-ethyl-6-(4-pyridinylmethyl)pyrazolo[3,4-d]pyrimidin-4-one]",650 nM,,,
"CCc1[nH]n(C2CCCC2)c2nc(Cc3ccc(OCC(=O)O)cc3)nc(=O)c1-2 [8(b), 1-cyclopentyl-3-ethyl-6-[4-(carboxymethoxy)phenylmethyl]pyrazolo[3,4-d]pyrimidin-4-one]",1200 nM,,,
CCc1nn(C2CCCC2)c2nc(Cc3ccc(OCCN4CCOCC4)cc3)[nH]c(=O)c12 [10(b)],270 nM,,,change in vivo at 10 mg/kg [2]: -17%
"CCc1[nH]n(C2CCCC2)c2nc(Cc3ccc(OCc4nnn[nH]4)cc3)nc(=O)c1-2 [11(b), 1-cyclopentyl-3-ethyl-6-[4-(5-tetrazolylmethoxy)phenylmethyl]pyrazolo[3,4-d]pyrimidin-4-one]",310 nM,,,change in vivo at 10 mg/kg [2]: -4%
"CCc1nn(C2CCCC2)c2nc(Cn3cnc4ccccc43)[nH]c(=O)c12 [12(b), 1-cyclopentyl-3-ethyl-6-[1-benzimidazolylmethyl]pyrazolo[3,4-d]pyrimidin-4-one]",,17%,39%,
"CCc1[nH]n(C2CCCC2)c2nc(CN3CCc4ccccc4C3)nc(=O)c1-2 [15(c), 1-cyclopentyl-3-ethyl-6-(1,2,3,4-tetrahydro-2-isoquinolinylmethyl)pyrazolo[3,4-d]pyrimidin-4-one]",1770 nM,,,
"CCc1nn(C2CCCC2)c2nc(CN3CCCc4ccccc43)[nH]c(=O)c12 [16(b), 1-cyclopentyl-3-ethyl-6-(1,2,3,4-tetrahydro-1-quinolinylmethyl)pyrazolo[3,4-d]pyrimidin-4-one]",,,32%,inhibition at 10 µM ([1]; 10 μM): 90%
"CCc1nn(C2CCCC2)c2nc(Cn3ccnc3)[nH]c(=O)c12 [18(b), 1-cyclopentyl-3-ethyl-6-(1-imidazolylmethyl)pyrazolo[3,4-d]pyrimidin-4-one]",,,33%,
"CCc1nn(C2CCCC2)c2nc(Cc3cccc(OCCN4CCOCC4)c3)[nH]c(=O)c12 [21(c), 1-cyclopentyl-3-ethyl-6-[3-[2-(4-morpholinyl)ethoxy]phenylmethyl]pyrazolo[3.4-d]pyrimidin-4-one]",420 nM,,,
"CCc1nn(C2CCCC2)c2nc(Cn3cccn3)[nH]c(=O)c12 [23(b), 1-cyclopentyl-3-ethyl-6-(1-pyrazolylmethyl)pyrazolo[3,4-d]pyrimidin-4-one]",,,33%,
"CCc1[nH]n(C2CCCC2)c2nc(Cc3ccc(C(F)(F)F)cc3)nc(=O)c1-2 [24(b), 1-cyclopentyl-3-ethyl-6-(4-trifluoromethylphenylmethyl) pyrazolo[3,4-d]pyrimidin-4-one]",180 nM,,,change in vivo at 10 mg/kg [2]: -8%
"CCc1[nH]n(C2CCCC2)c2nc(Cc3ccc([N+](=O)[O-])cc3)nc(=O)c1-2 [25(a), 1-cyclopentyl-3-ethyl-6-(4-nitrophenylmethyl)pyrazolo[3,4-d]pyrimidin-4-one]",76 nM,,,change in vivo at 10 mg/kg [2]: -5%
"CCc1[nH]n(C2CCCC2)c2nc(Cc3ccccc3OC)nc(=O)c1-2 [27(b), 1-cyclopentyl-3-ethyl-6-(2-methoxyphenylmethyl)pyrazolo[3,4-d]pyrimidin-4-one]",,25%,73%,
"CCc1[nH]n(C2CCCC2)c2nc(Cc3c(C)noc3C)nc(=O)c1-2 [28(b), 1-cyclopentyl-3-ethyl-6-(3,5-dimethyl-4-isoxazolylmethyl)pyrazolo[3,4-d]pyrimidin-4-one]",,,48%,
"CCc1[nH]n(C2CCCC2)c2nc(Cc3ccc(OC(=O)c4ccc(CN(CC)CC)cc4)cc3)nc(=O)c1-2 [33(b), 1-cyclopentyl-3-ethyl-6-[4-[4-(diethylaminomethyl)phenylcarbonyloxy]phenylmethyl]pyrazolo[3,4-d]pyrimidin-4-one]",,56%,,ED25 [2]: 9.3 mg/kg; change in vivo at 10 mg/kg [2]: -27%

Compound,IC50 [1],inhibition at 0.1 µM [1],inhibition at 1 µM ([1]; 1 μM),also measured
"CCc1[nH]n(C2CCCC2)c2nc(Cc3ccc(-n4ccnc4)cc3)nc(=O)c1-2 [36(b), 1-cyclopentyl-3-ethyl-6-[4-(1-imidazolyl)phenylmethyl]pyrazolo[3,4-d]pyrimidin-4-one]",,26%,62%,
"Cc1[nH]n(C(C)(C)C)c2nc(Cc3ccccc3)nc(=O)c1-2 [37(d), 1-tert-butyl-3-methyl-6-(phenylmethyl)pyrazolo[3,4-d]pyrimidin-4-one]",,36%,78%,
"CCc1[nH]n(C2CCCC2)c2nc(Nc3ccccc3)nc(=O)c1-2 [38(d), 1-cyclopentyl-3-ethyl-6-(phenylamino)pyrazolo[3,4-d]pyrimidin-4-one]",270 nM,,,
"CCc1nn(C2CCCC2)c2nc(Cn3cccc3)[nH]c(=O)c12 [Example 5, 1-cyclopentyl-3-ethyl-6-(1-pyrrolylmethyl)-pyrazolo[3,4-d]pyrimidin-4-one]",310 nM,,,
"CCc1[nH]n(C2CCCC2)c2nc(Cc3ccccn3)nc(=O)c1-2 [Example 9, 1-cyclopentyl-3-ethyl-6-(2-pyridinylmethyl)pyrazolo[3,4-d]pyrimidin-4-one]",540 nM,,,
"CCc1[nH]n(C2CCCC2)c2nc(Cc3cccnc3)nc(=O)c1-2 [Example 13, 1-cyclopentyl-3-ethyl-6-[3-pyridinylmethyl]pyrazolo[3,4-d]pyrimidin-4-one]",660 nM,,,
"CCc1[nH]n(C2CCCC2)c2nc(CO)nc(=O)c1-2 [Example 17, 1-cyclopentyl-3-ethyl-6-(hydroxymethyl)pyrazolo[3,4-d]pyrimidin-4-one]",,,20%,inhibition at 10 µM ([1]; 10 μM): 61%
"CCc1[nH]n(C2CCCC2)c2nc(Cc3cccc(OC)c3)nc(=O)c1-2 [Example 19, 1-cyclopentyl-3-ethyl-6-(3-methoxyphenylmethyl)pyrazolo[3,4-d]pyrimidin-4-one]",33 nM,,,ED25 [2]: 11 mg/kg; change in vivo at 10 mg/kg [2]: -21%
"CCc1[nH]n(C2CCCC2)c2nc(Cc3cccc(O)c3)nc(=O)c1-2 [Example 20, 1-cyclopentyl-3-ethyl-6-(3-hydroxyphenylmethyl)pyrazolo[3,4-d]pyrimidin-4-one]",86 nM,,,ED25 [2]: 10.1 mg/kg; change in vivo at 10 mg/kg [2]: -23%
"CCc1[nH]n(C2CCCC2)c2nc(Cc3cccn3C)nc(=O)c1-2 [Example 22, 1-cyclopentyl-3-ethyl-6-(1-methyl-2-pyrrolylmethyl)pyrazolo[3,4-d]pyrimidin-4-one]",300 nM,,,
"CCc1[nH]n(C2CCCC2)c2nc(Cc3ccc(NS(C)(=O)=O)cc3)nc(=O)c1-2 [Example 29, 1-cyclopentyl-3-ethyl-6-[4-(methylsulfonylamino)phenylmethyl]pyrazolo[3,4-d]pyrimidin-4-one]",,94%,,inhibition at 0.01 µM [1]: 77%
"CCc1[nH]n(C2CCCC2)c2nc(Cc3ccccc3O)nc(=O)c1-2 [Example 30, 1-cyclopentyl-3-ethyl-6-(2-hydroxyphenylmethyl)pyrazolo[3,4-d]pyrimidin-4-one]",,43%,73%,
"CCc1[nH]n(C2CCCC2)c2nc(Cc3ccsc3)nc(=O)c1-2 [Example 31, 1-cyclopentyl-3-ethyl-6-(3-thienylmethyl)pyrazolo[3,4-d]pyrimidin-4-one]",30 nM,,,
"CCc1[nH]n(C2CCCC2)c2nc(Cc3cccs3)nc(=O)c1-2 [Example 32, 1-cyclopentyl-3-ethyl-6-(2-thienylmethyl)pyrazolo[3,4-d]pyrimidin-4-one]",,58%,89%,inhibition at 0.01 µM [1]: 24%
"CCc1[nH]n(C2CCCC2)c2nc(Cc3ccccc3N)nc(=O)c1-2 [Example 34, 1-cyclopentyl-3-ethyl-6-(2-aminophenylmethyl)pyrazolo[3,4-d]pyrimidin-4-one]",,45%,78%,
"CCc1[nH]n(C2CCCC2)c2nc(Cc3ccc(N(C)C)cc3)nc(=O)c1-2 [Example 35, 1-cyclopentyl-3-ethyl-6-(4-dimethylaminophenylmethyl)pyrazolo[3,4-d]pyrimidin-4-one]",,34%,53%,
"CCc1[nH]n(C2CCCC2)c2nc(Oc3ccccc3)nc(=O)c1-2 [Example 39, 1-cyclopentyl-3-ethyl-6-(phenyloxy)pyrazolo[3,4-d]pyrimidin-4-one]",,33%,74%,
